{"source": "patent US20160175284A1", "about": "“ESTROGEN RECEPTOR MODULATORS AND USES THEREOF” (Genentech, Inc., priority 2014, published 2016)"}
{"biological_target": "T1, estrogen receptor alpha (ESR1) in MCF7 breast cancer cells (Homo sapiens, UniProt P03372)", "T1 construct": "endogenous in cells; host or cells: MCF7 breast cancer cells", "T1 sequence (P03372 1-595)": "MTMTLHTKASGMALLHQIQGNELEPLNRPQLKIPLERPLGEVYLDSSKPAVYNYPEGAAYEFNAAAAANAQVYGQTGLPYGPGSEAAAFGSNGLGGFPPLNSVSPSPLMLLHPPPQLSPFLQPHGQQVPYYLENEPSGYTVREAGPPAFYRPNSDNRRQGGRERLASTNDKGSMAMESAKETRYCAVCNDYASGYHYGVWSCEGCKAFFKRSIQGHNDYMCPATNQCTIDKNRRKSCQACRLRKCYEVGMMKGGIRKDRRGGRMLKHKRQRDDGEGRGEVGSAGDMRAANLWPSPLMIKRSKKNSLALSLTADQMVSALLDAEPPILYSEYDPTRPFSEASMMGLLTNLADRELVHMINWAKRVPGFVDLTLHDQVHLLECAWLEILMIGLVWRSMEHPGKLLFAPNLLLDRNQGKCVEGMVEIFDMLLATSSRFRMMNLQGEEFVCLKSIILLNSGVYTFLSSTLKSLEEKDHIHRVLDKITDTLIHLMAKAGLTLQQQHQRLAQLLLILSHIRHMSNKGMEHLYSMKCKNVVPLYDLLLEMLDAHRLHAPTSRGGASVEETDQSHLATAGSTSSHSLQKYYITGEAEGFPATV", "experiment": "Breast Cancer Cell ERa High Content Fluorescence Imaging Assay (F10)", "assay_type": "cell-based", "conditions": "4 hours, plateau of the maximal effect, DMSO and 5 nM Fulvestrant define 0% and 100% changes in ESR1", "method": "Breast Cancer Cell ERa High Content Fluorescence Imaging Assay (F10)\nCell plates were incubated at 37° C., for 4 hours. Fixation and permeabilization were carried out using a Biotek EL406 plate washer and dispenser as follows. […] Samples were incubated 30 minutes. Well contents was aspirated and 50 ul/well of Phosphate Buffered Saline (PBS) containing 0.5% w/v bovine serum albumen, 0.5% v/v Triton X-100 (Antibody Dilution Buffer) was added to each well. Samples were incubated for 30 minutes. Well contents were aspirated and washed 3 times with 100 ul/well of PBS. Immunofluorescence staining of estrogen receptor alpha (ESR1) was carried out using a Biotek EL406 plate washer and dispenser as follows. […] Samples were incubated for 2 hours at room temperature. Samples were washed 4 times with 100 ul/well of PBS. […] Samples were incubated for 2 hours at room temperature. Samples were washed 3 times with 100 ul/well of PBS using a Biotek EL406. Quantitative fluorescence imaging of ESR1 was carried out using a Cellomics Arrayscan V (Thermo). […] Channel 1 (DNA stain) was used to define the nuclear region (Circ). […] Data analysis was carried out using Genedata Screener Software, with DMSO and 5 nM Fulvestrant treated samples being used to define the 0% and 100% changes in ESR1. The “Robust Fit” method was used to define the inflexion point of curve (EC50) and the plateau of the maximal effect (Sinf).", "units": {"ER-alpha MCF7 HCS Sinf (%)": "%"}}
{"molecule": "CC1=C(c2ccc(S(C)(=O)=O)cc2)C(c2ccc(OCCN3CC(CF)C3)cc2)Oc2ccc(O)cc21", "note": "(stereo not shown) [Example 8, 2-(4-(2-(3-(fluoromethyl)azetidin-1-yl)ethoxy)phenyl)-4-methyl-3-(4-(methylsulfonyl)phenyl)-2H-chromen-6-ol]", "ER-alpha MCF7 HCS Sinf (%)": "−90"}
{"molecule": "CC1=C(c2ccc(F)c(C#N)c2)[C@H](c2ccc(OCCN3CC(CF)C3)cc2)Oc2ccc(O)cc21", "note": "[Example 35, (S)-2-fluoro-5-(2-(4-(2-(3-(fluoromethyl)azetidin-1-yl)ethoxy)phenyl)-6-hydroxy-4-methyl-2H-chromen-3-yl)benzonitrile]", "ER-alpha MCF7 HCS Sinf (%)": "−97"}
{"molecule": "CC1=C(c2cccc(F)c2F)C(c2ccc(OCCN3CC(CF)C3)cc2)Oc2ccc(O)cc21", "note": "(stereo not shown) [Example 4, 3-(2,3-Difluorophenyl)-2-(4-(2-(3-(fluoromethyl)azetidin-1-yl)ethoxy)phenyl)-4-methyl-2H-chromen-6-ol]", "ER-alpha MCF7 HCS Sinf (%)": "−98"}
{"molecule": "CC1=C(c2cc(F)cc(F)c2)[C@@H](c2ccc(OCCN3CC(CF)C3)cc2)Oc2ccc(O)cc21", "note": "[Example 19, (R)- and (S)-3-(3,5-Difluorophenyl)-2-(4-(2-(3-(fluoromethyl)azetidin-1-yl)ethoxy)phenyl)-4-methyl-2H-chromen-6-ol]", "ER-alpha MCF7 HCS Sinf (%)": "−50"}
{"molecule": "C#Cc1cc(O)cc(C2=C(C)c3cc(O)ccc3OC2c2ccc(OC[C@H](C)N3CC[C@@H](CF)C3)cc2)c1", "note": "(stereo partly drawn) [Example 3, 3-(3-Ethynyl-5-hydroxyphenyl)-2-(4-((S)-2-((R)-3-(fluoromethyl)pyrrolidin-1-yl)propoxy)phenyl)-4-methyl-2H-chromen-6-ol]", "ER-alpha MCF7 HCS Sinf (%)": "−94"}
{"molecule": "CC1=C(c2ccc(F)c(C#N)c2)C(c2ccc(OCCN3CC(CF)C3)cc2)Oc2ccc(O)cc21", "note": "(stereo not shown) [Example 33, 2-fluoro-5-[2-[4-[2-[3-(fluoromethyl)azetidin-1-yl]ethoxy]phenyl]-6-hydroxy-4-methyl-2H-chromen-3-yl]benzonitrile]", "ER-alpha MCF7 HCS Sinf (%)": "−96"}
{"molecule": "CC1=C(c2ccc(F)cc2Cl)[C@@H](c2ccc(OCCN3CC(CF)C3)cc2)Oc2ccc(O)cc21", "note": "[Example 40, (2R)-3-(2-chloro-4-fluoro-phenyl)-2-[4-[2-[3-(fluoromethyl)azetidin-1-yl]ethoxy]phenyl]-4-methyl-2H-chromen-6-ol]", "ER-alpha MCF7 HCS Sinf (%)": "−98"}
